Experimental data: patent publication US9193736B2, “PDE 10a inhibitors for the treatment of type II diabetes” (Janssen Pharmaceutica, NV, priority 2013, dated 2015)
Structures can show the parent of a compound that is named as a salt.

What was measured:
[1] = target: Rat recombinant PDE10a (rPDE10a) (Rattus norvegicus (Rat), UniProt Q9QYJ6); assay: In vitro assay PDE10a: rat recombinant PDE10a SPA with 3H-cAMP substrate, IC50; assay type: biochemical; conditions: 60 nM cAMP, read-out: rPDE10a2 IC50
Rat recombinant PDE10a (rPDE10a), sequence (Q9QYJ6 whole entry): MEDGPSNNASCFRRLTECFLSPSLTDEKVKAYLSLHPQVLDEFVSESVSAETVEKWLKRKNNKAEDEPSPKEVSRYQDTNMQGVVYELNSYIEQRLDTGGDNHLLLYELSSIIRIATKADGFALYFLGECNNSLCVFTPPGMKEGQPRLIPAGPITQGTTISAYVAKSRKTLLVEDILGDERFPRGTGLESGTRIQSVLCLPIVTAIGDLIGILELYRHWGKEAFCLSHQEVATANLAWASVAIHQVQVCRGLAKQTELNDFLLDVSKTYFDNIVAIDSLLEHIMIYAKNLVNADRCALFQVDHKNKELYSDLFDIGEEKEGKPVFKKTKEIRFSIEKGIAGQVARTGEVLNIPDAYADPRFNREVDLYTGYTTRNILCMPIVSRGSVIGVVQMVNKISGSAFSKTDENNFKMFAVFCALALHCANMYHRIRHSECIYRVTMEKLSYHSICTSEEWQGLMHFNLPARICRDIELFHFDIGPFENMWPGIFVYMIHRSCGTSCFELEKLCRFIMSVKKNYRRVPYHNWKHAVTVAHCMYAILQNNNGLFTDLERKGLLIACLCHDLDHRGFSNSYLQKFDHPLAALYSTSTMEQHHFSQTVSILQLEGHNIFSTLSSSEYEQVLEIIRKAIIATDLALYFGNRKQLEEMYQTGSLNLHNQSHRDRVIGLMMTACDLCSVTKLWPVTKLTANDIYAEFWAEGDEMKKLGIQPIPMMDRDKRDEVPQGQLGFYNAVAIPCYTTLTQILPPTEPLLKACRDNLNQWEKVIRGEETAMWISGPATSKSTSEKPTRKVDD
Procedure: In Vitro Assay PDE10a Rat recombinant PDE10a (rPDE10a) was expressed in Sf9 cells using a recombinant rPDE10a baculovirus construct. Cells were harvested after 48 h of infection and the rPDE10a protein was purified by metal chelate chromatography on Ni-sepharose 6FF. Tested compounds were dissolved and diluted in 100% DMSO to a concentration 100 fold of the final concentration in the assay. […] The reaction was incubated for 60 min at rt. After incubation, the reaction was stopped with 20 μL of 17.8 mg/mL PDE SPA beads. […] For blank values the enzyme was omitted from the reaction and replaced by incubation buffer.

[2] = target: Human recombinant PDE10A2 (Homo sapiens (Human), UniProt Q9Y233); assay: In vitro hPDE10a: human recombinant PDE10A2 scintillation proximity assay, IC50; assay type: biochemical; conditions: human recombinant PDE10A2, SPA, 60 nM cAMP; read-out: hPDE10a2 IC50
Human recombinant PDE10A2, sequence (Q9Y233 267-1055): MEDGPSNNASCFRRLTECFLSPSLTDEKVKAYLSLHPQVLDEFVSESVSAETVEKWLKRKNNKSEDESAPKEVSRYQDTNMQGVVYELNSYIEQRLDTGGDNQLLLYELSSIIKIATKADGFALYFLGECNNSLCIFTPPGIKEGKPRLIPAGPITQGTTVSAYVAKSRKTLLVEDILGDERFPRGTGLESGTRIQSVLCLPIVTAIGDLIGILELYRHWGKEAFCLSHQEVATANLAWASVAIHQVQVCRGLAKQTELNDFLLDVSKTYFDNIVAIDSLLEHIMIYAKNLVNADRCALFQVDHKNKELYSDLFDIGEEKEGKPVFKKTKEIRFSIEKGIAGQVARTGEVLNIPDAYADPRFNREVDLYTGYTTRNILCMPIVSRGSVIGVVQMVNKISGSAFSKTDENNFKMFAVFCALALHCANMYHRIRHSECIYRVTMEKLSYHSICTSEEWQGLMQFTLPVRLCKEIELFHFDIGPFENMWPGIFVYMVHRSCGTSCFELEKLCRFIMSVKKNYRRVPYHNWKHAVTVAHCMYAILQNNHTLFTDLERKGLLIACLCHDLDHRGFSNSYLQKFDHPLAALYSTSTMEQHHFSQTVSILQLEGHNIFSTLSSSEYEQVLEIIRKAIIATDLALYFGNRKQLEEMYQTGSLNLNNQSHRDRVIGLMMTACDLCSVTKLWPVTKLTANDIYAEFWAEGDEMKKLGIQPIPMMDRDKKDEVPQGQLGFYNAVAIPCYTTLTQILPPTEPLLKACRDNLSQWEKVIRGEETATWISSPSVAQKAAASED
Procedure: Cells were harvested and the phosphodiesterase protein was purified by metal chelate chromatography on Ni-sepharose 6FF. The affinity of the compounds of Formula (I) for phophodiesterases (PDE) was measured by a scintillation proximity assay (SPA). PDE Yttrium Silicate SPA beads allow PDE activity to be measured by direct binding of the primary phosphate groups of non-cyclic AMP or GMP to the beads via a complex iron chelation mechanism. The amount of bound tritiated product ([^3H]-AMP) is measured by liquid scintillation counting. The compounds were dissolved and diluted in 100% DMSO in polystyrene plates to a concentration of 100-fold the final concentration in the assay. […] After incubation, the reaction was stopped with 20 μL of stop solution, consisting of PDE SPA beads (17.8 mg beads/mL in 18 mM zinc sulphate). […] To measure the low control, no enzyme was added to the reaction mixture. Data were calculated as the percentage of inhibition of total activity measured in the absence of test compound (% control). […] For compounds tested more than once, the data points were aggregated.

Row | SMILES | IC50 [1] [nM] | IC50 [2] [nM]
1 | O=C(O)c1ccc(-c2c(/C=C/c3ccc4ccccc4n3)nc3c(N4CCOCC4)ccnn23)nc1 [compound 113, (E)-6-(8-Morpholino-2-(2-(quinolin-2-yl)vinyl)imidazo[1,2-b]pyridazin-3-yl)nicotinic acid] | 2 | 2
2 | CS(=O)(=O)Nc1ccc(-c2c(CCc3ccc4ccccc4n3)nc3c(N4CCOCC4)ccnn23)cc1 [compound 45, N-(4-(8-Morpholino-2-(2-(quinolin-2-yl)ethyl)imidazo[1,2-b]pyridazin-3-yl)phenyl)methanesulfonamide] | 5 | 8
3 | Oc1ccc(-c2c(/C=C/c3ccc4ccccc4n3)nc3c(N4CCOCC4)ccnn23)cn1 [Cpd 16, (E)-5-(8-Morpholino-2-(2-(quinolin-2-yl)vinyl)imidazo[1,2-b]pyridazin-3-yl)pyridin-2-ol] | 6 | 6
4 | Oc1c(F)cc(-c2c(CCc3ccc4ccccc4n3)nc3c(N4CCOCC4)ccnn23)cc1F [compound 81, 2,6-Difluoro-4-(8-morpholino-2-(2-(quinolin-2-yl)ethyl)imidazo[1,2-b]pyridazin-3-yl)phenol] | 4 | 1
5 | Cn1nc(-c2ccc(-c3c(CCc4ccc5ccccc5n4)nc4c(N5CCOCC5)ccnn34)cc2)[nH]c1=O [Cpd 78, 1-Methyl-3-[4-[8-(morpholin-4-yl)-2-[2-(quinolin-2-yl)ethyl]imidazo[1,2-b]pyridazin-3-yl]phenyl]-4,5-dihydro-1H-1,2,4-triazol-5-one] | 20 | 15
6 | O=C(O)CCC(=O)N1CCN(c2c(/C=C/c3ccc4ccccc4n3)nc3c(N4CCOCC4)ccnn23)CC1 [compound 155, (E)-4-(4-(8-Morpholino-2-(2-(quinolin-2-yl)vinyl)imidazo[1,2-b]pyridazin-3-yl)piperazin-1-yl)-4-oxobutanoic acid] | 3 | 5
7 | O=c1ncn(-c2ccc(-c3c(CCc4ccc5ccccc5n4)nc4c(N5CCOCC5)ccnn34)cc2)[nH]1 [Cpd 59, 1-(4-(8-Morpholino-2-(2-(quinolin-2-yl)ethyl)imidazo[1,2-b]pyridazin-3-yl)phenyl)-1,2-dihydro-1,2,4-triazol-3-one trifluoroacetic acid salt] | 6 | 5
8 | O=C(O)c1ccc(-c2c(/C=C/c3ccccn3)nc3c(N4CCOCC4)ccnn23)cc1 [Cpd 89, (E)-4-(8-Morpholino-2-(2-(pyridin-2-yl)vinyl)imidazo[1,2-b]pyridazin-3-yl)benzoic acid] | 62 | 89
9 | O=C(O)c1ccc(-c2c(CCc3ccc4ccccc4n3)nc3c(N4CCOCC4)ccnn23)o1 [compound 60, 5-(8-Morpholino-2-(2-(quinolin-2-yl)ethyl)imidazo[1,2-b]pyridazin-3-yl)furan-2-carboxylic acid] | < 1 | < 1
10 | OC(c1ccc(-c2c(CCc3ccc4ccccc4n3)nc3c(N4CCOCC4)ccnn23)cc1)(C(F)(F)F)C(F)(F)F [compound 53, 1,1,1,3,3,3-Hexafluoro-2-(4-(8-morpholino-2-(2-(quinolin-2-yl)ethyl)imidazo[1,2-b]pyridazin-3-yl)phenyl)propan-2-ol] | 33 | 41
11 | CCN(CC)c1ccc(-c2c(COc3ccc4ccccc4n3)nc3c(N4CCOCC4)ccnn23)cn1 [Cpd 7, N,N-diethyl-5-(8-morpholino-2-((quinolin-2-yloxy)methyl)imidazo[1,2-b]pyridazin-3-yl)pyridin-2-amine methane sulfonic acid] | 447 | 692
12 | O=C(O)CN1CCC(c2c(/C=C/c3ccc4ccccc4n3)nc3c(N4CCOCC4)ccnn23)CC1 [Cpd 29, (E)-2-(4-(8-Morpholino-2-(2-(quinolin-2-yl)vinyl)imidazo[1,2-b]pyridazin-3-yl)piperidin-1-yl)acetic acid trifluoroacetic acid salt] | 49 | 39
13 | CN(C)c1ccc(-c2c(COc3ccc4ccccc4n3)nc3c(N4CCOCC4)ccnn23)cn1 [Cpd 5, N,N-dimethyl-5-(8-morpholino-2-((quinolin-2-yloxy)methyl)imidazo[1,2-b]pyridazin-3-yl)pyridin-2-amine methane sulfonic acid] | 457 | 126
14 | O=C(O)CCNc1ccc(-c2c(/C=C/c3ccc4ccccc4n3)nc3c(N4CCOCC4)ccnn23)cc1 [Cpd 93, (E)-3-(4-(8-Morpholino-2-(2-(quinolin-2-yl)vinyl)imidazo[1,2-b]pyridazin-3-yl)phenylamino)propanoic acid trifluoroacetic acid salt] | 3 | 3
15 | c1ccc2nc(CCc3nc4c(N5CCOCC5)ccnn4c3-c3ccc(N4CCNCC4)nc3)ccc2c1 [Cpd 13, 4-(3-(6-(piperazin-1-yl)pyridin-3-yl)-2-(2-(quinolin-2-yl)ethyl)imidazo[1,2-b]pyridazin-8-yl)morpholine trifluoroacetic acid salt] | 14 | 20
16 | CS(=O)(=O)NC(=O)Nc1ccc(-c2c(/C=C/c3ccc4ccccc4n3)nc3c(N4CCOCC4)ccnn23)cc1 [compound 50, (E)-N-((4-(8-Morpholino-2-(2-(quinolin-2-yl)vinyl)imidazo[1,2-b]pyridazin-3-yl)phenyl)carbamoyl)methanesulfonamide] | 3 | 8
17 | Nc1ccc(-c2c(/C=C/c3ccc4ccccc4n3)nc3c(N4CCOCC4)ccnn23)cn1 [Cpd 18, (E)-5-(8-Morpholino-2-(2-(quinolin-2-yl)vinyl)imidazo[1,2-b]pyridazin-3-yl)pyridin-2-amine] | 3 | 6
18 | COc1cccc(C#Cc2nc3c(N4CCOCC4)ccnn3c2-c2ccc(C(=O)O)cc2)n1 [Cpd 109, 4-(2-((6-Methoxypyridin-2-yl)ethynyl)-8-morpholinoimidazo[1,2-b]pyridazin-3-yl)benzoic acid] | < 1 | < 1
19 | O=C(O)c1ccc(-c2c(CCc3ccc4c(n3)CCCC4)nc3c(N4CCOCC4)ccnn23)cc1 [Cpd 79, 4-(8-Morpholino-2-(2-(5,6,7,8-tetrahydroquinolin-2-yl)ethyl)imidazo[1,2-b]pyridazin-3-yl)benzoic acid trifluoroacetic acid salt] | 8 | 3
20 | O=C(O)[C@@H]1CCCN1C(=O)c1ccc(-c2c(CCc3ccc4ccccc4n3)nc3c(N4CCOCC4)ccnn23)cc1 [Cpd 72, (S)-1-(4-(8-Morpholino-2-(2-(quinolin-2-yl)ethyl)imidazo[1,2-b]pyridazin-3-yl)benzoyl)pyrrolidine-2-carboxylic acid trifluoroacetic acid salt] | 8 | 6
21 | O=C(O)c1ccc2ccc(/C=C/c3cn4nc(Cl)cc(N5CCOCC5)c4n3)nc2c1 [Cpd 94, 2-[(E)-2-(6-Chloro-8-morpholin-4-ylimidazo[1,2-b]pyridazin-2-yl)ethenyl]quinoline-7-carboxylic acid] | 82 | 53
22 | O=C(O)c1cc2ccccc2nc1/C=C/c1cn2nccc(N3CCOCC3)c2n1 [Cpd 144, 2-[(E)-2-(8-Morpholin-4-ylimidazo[1,2-b]pyridazin-2-yl)ethenyl]quinoline-3-carboxylic acid] | < 1 | < 1
23 | Oc1c(F)cc(-c2c(/C=C/c3ccc4ccccc4n3)nc3c(N4CCOCC4)ccnn23)cc1F [compound 80, (E)-2,6-Difluoro-4-(8-morpholino-2-(2-(quinolin-2-yl)vinyl)imidazo[1,2-b]pyridazin-3-yl)phenol] | 2 | < 1
24 | COc1cc(C(=O)O)ccc1-c1c(/C=C/c2ccc3ccccc3n2)nc2c(N3CCOCC3)ccnn12 [compound 98, (E)-3-Methoxy-4-(8-morpholino-2-(2-(quinolin-2-yl)vinyl)imidazo[1,2-b]pyridazin-3-yl)benzoic acid] | 3 | 3
25 | c1ccc2nc(CCc3nc4c(N5CCOCC5)ccnn4c3-c3ccc(-c4nnn[nH]4)nc3)ccc2c1 [Cpd 31, 4-(3-(6-(1H-Tetrazol-5-yl)pyridin-3-yl)-2-(2-(quinolin-2-yl)ethyl)imidazo[1,2-b]pyridazin-8-yl)morpholine trifluoroacetic acid salt] | < 1 | 1
26 | COc1ccc(C#Cc2nc3c(N4CCOCC4)ccnn3c2-c2ccc(C(=O)O)cc2)nc1 [Cpd 110, 4-(2-((5-Methoxypyridin-2-yl)ethynyl)-8-morpholinoimidazo[1,2-b]pyridazin-3-yl)benzoic acid] | 2 | 2
27 | O=C(Nc1ccc2ccccc2n1)c1nc2c(N3CCOCC3)ccnn2c1-c1ccc(N2CCNCC2)nc1 [Cpd 3, 8-Morpholino-3-(6-(piperazin-1-yl)pyridin-3-yl)-N-(quinolin-2-yl)imidazo[1,2-b]pyridazine-2-carboxamide trifluoroacetic acid salt] | 676 | 759
